Data on 19 compounds can be found in patent US20240316022A1 (TYRA BIOSCIENCES, INC., priority 2021, published 2024).

Common to all, as to experiment: Kinase binding assay (kinase-tagged T7 phage, qPCR), Kd
For orientation: In qPCR the cycle at which signal appears reflects the starting amount.

The target of assay [1] is T1, FGFR4 (Homo sapiens, UniProt P22455).
T1 construct: made in house; host or cells: E. coli derived from BL21, infected with T7 phage
The conditions noted are these: read-out: FGFR4 (Kd nM). As for the experimental part:
(§1) Kinase-tagged T7 phage strains were prepared in an E. coli host derived from the BL21 strain. E. coli were grown to log-phase and infected with T7 phage and incubated with shaking at 32° C. until lysis. The lysates were centrifuged and filtered to remove cell debris. Streptavidin-coated magnetic beads were treated with biotinylated small molecule ligands for 30 minutes at room temperature to generate affinity resins for kinase assays. The liganded beads were blocked with excess biotin and washed with blocking buffer SeaBlock (Pierce), 1% BSA, 0.05% Tween 20, 1 mM DTT to remove unbound ligand and to reduce non-specific binding. Binding reactions were assembled by combining kinases, liganded affinity beads, and test compounds in 1× binding buffer (20% SeaBlock, 0.17×PBS, 0.05% Tween 20, 6 mM DTT).
(§2) Test compounds were prepared as 111X stocks in 100% DMSO. Kds were determined using an 11-point 3-fold compound dilution series with three DMSO control points. All compounds for Kd measurements are distributed by acoustic transfer (non-contact dispensing) in 100% DMSO. The compounds were then diluted directly into the assays such that the final concentration of DMSO was 0.9%. All reactions performed in polypropylene 384-well plate. Each was a final volume of 0.02 ml. The assay plates were incubated at room temperature with shaking for 1 hour and the affinity beads were washed with wash buffer (1×PBS, 0.05% Tween 20). The beads were then re-suspended in elution buffer (1×PBS, 0.05% Tween 20, 0.5 μM non-biotinylated affinity ligand) and incubated at room temperature with shaking for 30 minutes. The kinase concentration in the eluates was measured by qPCR.
(§3) Binding constants were calculated with a standard dose-response curve using the Hill equation: […]
(§4) The Hill Slope was set to −1. Curves were fitted using a non-linear least square fit with the Levenberg-Marquardt algorithm.

The target in assay [2] is T2, FGFR3 (Homo sapiens, UniProt P22607).
T2 construct: made in house; host or cells: E. coli derived from BL21, infected with T7 phage
T2 sequence (P22607 23-806): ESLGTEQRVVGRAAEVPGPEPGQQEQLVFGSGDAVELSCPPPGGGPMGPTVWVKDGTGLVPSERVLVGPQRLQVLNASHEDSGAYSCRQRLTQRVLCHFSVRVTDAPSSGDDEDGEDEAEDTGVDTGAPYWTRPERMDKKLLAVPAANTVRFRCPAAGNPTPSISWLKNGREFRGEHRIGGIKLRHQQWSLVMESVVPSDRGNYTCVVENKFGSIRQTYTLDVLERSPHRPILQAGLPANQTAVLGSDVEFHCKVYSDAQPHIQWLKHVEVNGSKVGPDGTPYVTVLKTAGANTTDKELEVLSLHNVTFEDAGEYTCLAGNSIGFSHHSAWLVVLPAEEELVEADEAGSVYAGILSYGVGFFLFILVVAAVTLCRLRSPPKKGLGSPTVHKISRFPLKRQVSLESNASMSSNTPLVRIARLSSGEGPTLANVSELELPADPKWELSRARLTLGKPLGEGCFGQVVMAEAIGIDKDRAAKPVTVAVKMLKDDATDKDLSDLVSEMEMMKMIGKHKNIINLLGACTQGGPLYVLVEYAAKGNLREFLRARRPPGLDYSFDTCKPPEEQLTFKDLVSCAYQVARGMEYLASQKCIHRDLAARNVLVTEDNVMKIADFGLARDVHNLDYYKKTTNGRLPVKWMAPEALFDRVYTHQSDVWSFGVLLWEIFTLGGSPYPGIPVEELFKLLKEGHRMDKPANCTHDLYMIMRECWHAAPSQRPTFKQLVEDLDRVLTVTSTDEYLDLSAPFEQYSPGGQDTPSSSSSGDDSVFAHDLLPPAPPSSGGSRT
Particulars: read-out: FGFR3 (Kd nM). As to the method:
as §1, §2, §3, §4

Assay [3] addresses T3, FGFR1 (Homo sapiens, UniProt P11362).
T3 construct: made in house; host or cells: E. coli derived from BL21, infected with T7 phage
Particulars: read-out: FGFR1 (Kd nM). As to the method: (§5) Kinase-tagged T7 phage strains were prepared in an E. coli host derived from the BL21 strain. E. coli were grown to log-phase and infected with T7 phage and incubated with shaking at 32° C. until lysis. The lysates were centrifuged and filtered to remove cell debris. […] The liganded beads were blocked with excess biotin and washed with blocking buffer SeaBlock (Pierce), 1% BSA, 0.05% Tween 20, 1 mM DTT to remove unbound ligand and to reduce non-specific binding.
(§6) Kds were determined using an 11-point 3-fold compound dilution series with three DMSO control points. […] The compounds were then diluted directly into the assays such that the final concentration of DMSO was 0.9%. All reactions performed in polypropylene 384-well plate. Each was a final volume of 0.02 ml. […] The kinase concentration in the eluates was measured by qPCR.
as §3, §4

The target in assay [4] is T4, FGFR2 (Homo sapiens, UniProt P21802).
T4 construct: made in house; host or cells: E. coli derived from BL21, infected with T7 phage
T4 sequence (P21802 22-821): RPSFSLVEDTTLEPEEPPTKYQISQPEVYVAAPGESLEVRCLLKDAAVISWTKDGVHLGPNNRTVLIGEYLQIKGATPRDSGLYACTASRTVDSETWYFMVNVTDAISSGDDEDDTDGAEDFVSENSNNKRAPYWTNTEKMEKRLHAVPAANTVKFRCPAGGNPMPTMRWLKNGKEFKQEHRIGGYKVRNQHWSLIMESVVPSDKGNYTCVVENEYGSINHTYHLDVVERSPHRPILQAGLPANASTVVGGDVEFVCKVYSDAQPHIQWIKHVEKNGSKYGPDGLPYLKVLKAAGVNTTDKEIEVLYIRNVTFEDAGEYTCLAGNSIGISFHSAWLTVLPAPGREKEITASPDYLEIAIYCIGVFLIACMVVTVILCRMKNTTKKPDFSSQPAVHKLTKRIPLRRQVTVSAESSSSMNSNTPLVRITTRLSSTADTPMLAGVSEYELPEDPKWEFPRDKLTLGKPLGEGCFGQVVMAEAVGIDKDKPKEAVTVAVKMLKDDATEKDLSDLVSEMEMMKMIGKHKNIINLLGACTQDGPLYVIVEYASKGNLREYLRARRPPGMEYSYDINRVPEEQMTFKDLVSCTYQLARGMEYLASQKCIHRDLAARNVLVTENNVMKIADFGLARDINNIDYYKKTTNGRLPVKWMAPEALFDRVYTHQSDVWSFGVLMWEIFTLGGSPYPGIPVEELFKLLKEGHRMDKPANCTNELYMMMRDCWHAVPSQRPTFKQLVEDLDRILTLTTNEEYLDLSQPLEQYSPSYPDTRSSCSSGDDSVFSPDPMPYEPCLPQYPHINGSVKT
Particulars: read-out: FGFR2 (Kd nM). As for the experimental part: as §5, §6, §3, §4

One may read the Kd as the concentration at which binding is half-saturated.

The structures appear in SMILES notation.

T1 sequence (P22455 22-802): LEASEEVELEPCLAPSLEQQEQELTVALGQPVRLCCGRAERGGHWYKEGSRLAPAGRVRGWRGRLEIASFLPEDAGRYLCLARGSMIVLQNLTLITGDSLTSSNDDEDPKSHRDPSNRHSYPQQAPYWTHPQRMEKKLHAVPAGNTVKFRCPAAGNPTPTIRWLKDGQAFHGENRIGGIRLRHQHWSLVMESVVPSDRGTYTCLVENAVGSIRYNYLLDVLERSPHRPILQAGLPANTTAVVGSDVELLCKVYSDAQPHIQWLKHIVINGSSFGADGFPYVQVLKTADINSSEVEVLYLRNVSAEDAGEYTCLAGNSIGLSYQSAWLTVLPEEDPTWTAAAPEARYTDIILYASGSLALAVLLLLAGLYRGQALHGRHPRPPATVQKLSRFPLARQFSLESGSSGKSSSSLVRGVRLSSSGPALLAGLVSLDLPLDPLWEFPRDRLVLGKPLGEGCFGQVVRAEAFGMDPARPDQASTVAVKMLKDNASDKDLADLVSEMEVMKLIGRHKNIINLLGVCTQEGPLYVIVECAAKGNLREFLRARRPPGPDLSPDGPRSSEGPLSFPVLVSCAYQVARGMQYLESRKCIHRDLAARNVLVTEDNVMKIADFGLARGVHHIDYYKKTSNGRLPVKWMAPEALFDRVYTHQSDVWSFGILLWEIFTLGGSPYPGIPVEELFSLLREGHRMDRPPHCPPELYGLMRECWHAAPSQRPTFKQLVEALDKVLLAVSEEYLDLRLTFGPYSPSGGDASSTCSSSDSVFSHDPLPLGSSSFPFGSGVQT
T3 sequence (P11362 22-822): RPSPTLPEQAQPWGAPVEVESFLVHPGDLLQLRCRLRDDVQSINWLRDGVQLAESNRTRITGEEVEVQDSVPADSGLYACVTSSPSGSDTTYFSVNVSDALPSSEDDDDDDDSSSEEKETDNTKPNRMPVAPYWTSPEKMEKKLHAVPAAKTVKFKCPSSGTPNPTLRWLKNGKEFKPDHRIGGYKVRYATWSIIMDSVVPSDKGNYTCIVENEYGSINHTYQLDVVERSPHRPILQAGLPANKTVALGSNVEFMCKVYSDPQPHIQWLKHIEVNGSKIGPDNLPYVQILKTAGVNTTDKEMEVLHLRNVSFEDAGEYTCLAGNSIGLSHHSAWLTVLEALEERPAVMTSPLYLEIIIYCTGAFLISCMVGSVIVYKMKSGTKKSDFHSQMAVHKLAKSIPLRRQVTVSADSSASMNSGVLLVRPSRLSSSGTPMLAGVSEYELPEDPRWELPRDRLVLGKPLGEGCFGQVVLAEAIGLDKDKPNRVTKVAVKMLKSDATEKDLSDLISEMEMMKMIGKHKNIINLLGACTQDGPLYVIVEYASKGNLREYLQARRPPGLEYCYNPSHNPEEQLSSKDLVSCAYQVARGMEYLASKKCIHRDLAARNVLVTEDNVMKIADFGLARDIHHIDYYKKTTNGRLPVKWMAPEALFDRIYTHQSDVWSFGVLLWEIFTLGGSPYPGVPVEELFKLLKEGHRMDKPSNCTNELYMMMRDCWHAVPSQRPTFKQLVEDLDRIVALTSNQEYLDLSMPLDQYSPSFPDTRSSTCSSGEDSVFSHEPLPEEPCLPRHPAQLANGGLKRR

Regarding `COc1ncc(-c2n[nH]c3ccc(O[C@H](C)c4c(Cl)cncc4Cl)cc23)cc1N` [Example 1, 5-[5-[(1R)-1-(3,5-dichloro-4-pyridyl)ethoxy]-1H-indazol-3-yl]-2-methoxy-pyridin-3-amine], the Kd in assay [1] was 0.1 to 100 nM; in assay [2], 0.1 to 100 nM; in assay [3] it was 100 to 250 nM; in assay [4] it was 100 to 250 nM.
On to `COc1ncc(-c2n[nH]c3ccc(O[C@H](C)c4c(Cl)cncc4Cl)cc23)cc1NC(=O)c1ccccn1` [Example 2, (R)—N-(5-(5-(1-(3,5-Dichloropyridin-4-yl)ethoxy)-1H-indazol-3-yl)-2-methoxypyridin-3-yl)picolinamide], for which the Kd was 0.1 to 100 nM in assay [1], more than 1000 nM in assay [2], more than 1000 nM in assay [3] and more than 1000 nM in assay [4].
On to `COc1ncc(-c2n[nH]c3ccc(O[C@H](C)c4c(Cl)cncc4Cl)cc23)cc1NC(=O)c1cccc2cccnc12` [Example 3, (R)—N-(5-(5-(1-(3,5-Dichloropyridin-4-yl)ethoxy)-1H-indazol-3-yl)-2-methoxypyridin-3-yl)quinoline-8-carboxamide], for which the Kd in assay [1] was 250 to 1000 nM; in assay [2] it was more than 1000 nM; in assay [3] it was more than 1000 nM; in assay [4] it was more than 1000 nM.
For `COc1ncc(-c2n[nH]c3ccc(O[C@H](C)c4c(Cl)cncc4Cl)cc23)cc1NCc1ccccn1` [Example 4, (R)-5-(5-(1-(3,5-Dichloropyridin-4-yl)ethoxy)-1H-indazol-3-yl)-2-methoxy-N-(pyridin-2-ylmethyl)pyridin-3-amine], the Kd in assay [1] was 250 to 1000 nM; in assay [2], 250 to 1000 nM; in assay [3] it was more than 1000 nM; in assay [4] it was more than 1000 nM.
In the case of `COc1ncc(-c2n[nH]c3ccc(O[C@H](C)c4c(Cl)cncc4Cl)cc23)cc1NC(=O)N1CCOCC1` [Example 5, (R)—N-(5-(5-(1-(3,5-Dichloropyridin-4-yl)ethoxy)-1H-indazol-3-yl)-2-methoxypyridin-3-yl)morpholine-4-carboxamide], the Kd is 0.1 to 100 nM in assay [1], 250 to 1000 nM in assay [2], more than 1000 nM in assay [3] and 100 to 250 nM in assay [4].
In the same order, the values of `COc1ncc(-c2n[nH]c3ccc(O[C@H](C)c4c(Cl)cncc4Cl)cc23)cc1NCc1ccnc(C)c1` [Example 6, (R)-5-(5-(1-(3,5-Dichloropyridin-4-yl)ethoxy)-1H-indazol-3-yl)-2-methoxy-N-((2-methylpyridin-4-yl)methyl)pyridin-3-amine] are 250 to 1000 nM, more than 1000 nM, more than 1000 nM and more than 1000 nM.
In the same order, the values of `COc1ncc(-c2n[nH]c3ccc(O[C@H](C)c4c(Cl)cncc4Cl)cc23)cc1NC(=O)N1CCN(C)CC1` [Example 7, (R)—N-(5-(5-(1-(3,5-Dichloropyridin-4-yl)ethoxy)-1H-indazol-3-yl)-2-methoxypyridin-3-yl)-4-methylpiperazine-1-carboxamide] are 0.1 to 100 nM, 100 to 250 nM, more than 1000 nM and more than 1000 nM.
In the same order, the values of `C[C@@H](Oc1ccc2[nH]nc(-c3ccc(S(C)(=O)=O)nc3)c2c1)c1c(Cl)cncc1Cl` [Example 10, (R)-5-(1-(3,5-Dichloropyridin-4-yl)ethoxy)-3-(6-(methylsulfonyl)pyridin-3-yl)-1H-indazole] are 0.1 to 100 nM, 0.1 to 100 nM, 0.1 to 100 nM and 0.1 to 100 nM.
As for `C[C@@H](Oc1ccc2[nH]nc(-c3ccc(NC(=O)C4CC4)nc3)c2c1)c1c(Cl)cncc1Cl` [Example 11, (R)—N-(5-(5-(1-(3,5-Dichloropyridin-4-yl)ethoxy)-1H-indazol-3-yl)pyridin-2-yl)cyclopropanecarboxamide], the Kd was in the range of 0.1 to 100 nM in assay [1], 0.1 to 100 nM in assay [2], 0.1 to 100 nM in assay [3] and 100 to 250 nM in assay [4].
Take `C[C@@H](Oc1ccc2[nH]nc(-c3ccc(C(N)=O)nc3)c2c1)c1c(Cl)cncc1Cl` [Example 12, 5-[5-[(1R)-1-(3,5-dichloro-4-pyridyl)ethoxy]-1H-indazol-3-yl]pyridine-2-carboxamide]: the dissociation constant (Kd) in assay [1], in assay [2], in assay [3] and in assay [4] was 0.1 to 100 nM throughout.
Regarding `C[C@@H](Oc1ccc2[nH]nc(-c3ccc(NC(=O)N(C)C)nc3)c2c1)c1c(Cl)cncc1Cl` [Example 14, 3-[5-[5-[(1R)-1-(3,5-dichloro-4-pyridyl)ethoxy]-1H-indazol-3-yl]-2-pyridyl]-1,1-dimethyl-urea], the Kd in assay [1], in assay [2], in assay [3] and in assay [4] was 0.1 to 100 nM throughout.
On to `COc1ncc(-c2n[nH]c3ccc(O[C@H](C)c4c(Cl)cncc4Cl)cc23)cc1NC(=O)CN(C)C` [Example 15, N-[5-[5-[(1R)-1-(3,5-dichloro-4-pyridyl)ethoxy]-1H-indazol-3-yl]-2-methoxy-3-pyridyl]-2-(dimethylamino)acetamide], for which the Kd is 0.1 to 100 nM in assay [1], 100 to 250 nM in assay [2], more than 1000 nM in assay [3] and more than 1000 nM in assay [4].
Regarding `C[C@@H](Oc1ccc2[nH]nc(-c3cnc4c(c3)N(C(=O)N3CCOCC3)CCO4)c2c1)c1c(Cl)cncc1Cl` [Example 18, [7-[5-[(1R)-1-(3,5-dichloro-4-pyridyl)ethoxy]-1H-indazol-3-yl]-2,3-dihydropyrido[2,3-b][1,4]oxazin-1-yl]-morpholino-methanone], the Kd is 0.1 to 100 nM in assay [1], 100 to 250 nM in assay [2], 250 to 1000 nM in assay [3] and 250 to 1000 nM in assay [4].
Consider `C[C@@H](Oc1ccc2[nH]nc(-c3ccc(NC(=O)N4CCN(C)CC4)nc3)c2c1)c1c(Cl)cncc1Cl` [Example 19, N-[5-[5-[(1R)-1-(3,5-dichloro-4-pyridyl)ethoxy]-1H-indazol-3-yl]-2-pyridyl]-4-methyl-piperazine-1-carboxamide], for which the Kd in assay [1], in assay [2], in assay [3] and in assay [4] was 0.1 to 100 nM in each case.
As for `C[C@@H](Oc1ccc2[nH]nc(-c3cnc4c(c3)N(C(=O)CN(C)C)CCO4)c2c1)c1c(Cl)cncc1Cl` [Example 21, 1-[7-[5-[(1R)-1-(3,5-dichloro-4-pyridyl)ethoxy]-1H-indazol-3-yl]-2,3-dihydropyrido[2,3-b][1,4]oxazin-1-yl]-2-(dimethylamino)ethanone], the Kd was 0.1 to 100 nM in assay [1], 250 to 1000 nM in assay [2], more than 1000 nM in assay [3] and more than 1000 nM in assay [4].
With `C[C@@H](Oc1ccc2[nH]nc(-c3cnc(NC(=O)CN(C)C)c(F)c3)c2c1)c1c(Cl)cncc1Cl` [Example 22, N-[5-[5-[(1R)-1-(3,5-dichloro-4-pyridyl)ethoxy]-1H-indazol-3-yl]-3-fluoro-2-pyridyl]-2-(dimethylamino)acetamide], the dissociation constant (Kd) in assay [1], in assay [2], in assay [3] and in assay [4] was 0.1 to 100 nM in each case.
On to `Cc1cc(C(=O)N2CCOc3ncc(-c4n[nH]c5ccc(O[C@H](C)c6c(Cl)cncc6Cl)cc45)cc32)ccn1` [Example 23, [7-[5-[(1R)-1-(3,5-dichloro-4-pyridyl)ethoxy]-1H-indazol-3-yl]-2,3-dihydro-pyrido[2,3-b][1,4]oxazin-1-yl]-(2-methyl-4-pyridyl)methanone], for which the Kd was 0.1 to 100 nM in assay [1], 250 to 1000 nM in assay [2], more than 1000 nM in assay [3] and more than 1000 nM in assay [4].
In the case of `C[C@@H](Oc1ccc2[nH]nc(-c3ccc(NC(=O)N4CCC(O)C4)nc3)c2c1)c1c(Cl)cncc1Cl` (stereo partly drawn) [Example 24, N-[5-[5-[(1R)-1-(3,5-dichloro-4-pyridyl)ethoxy]-1H-indazol-3-yl]-2-pyridyl]-3-hydroxy-pyrrolidine-1-carboxamide], the Kd in assay [1], in assay [2], in assay [3] and in assay [4] was 0.1 to 100 nM each time.
Consider `COc1cc(C#N)cc(-c2n[nH]c3cc(OC)c(O[C@H](C)c4c(C)cnnc4C)cc23)c1` [Example 101, (R)-3-(5-(1-(3,5-dimethylpyridazin-4-yl)ethoxy)-6-methoxy-1H-indazol-3-yl)-5-methoxybenzonitrile], for which the Kd in assay [2], in assay [3] and in assay [4] was 0.1 to 100 nM in each case.
